Assay results: ChEMBL document CHEMBL2062378, “Antimycobacterial activity: a facile three-component [3+2]-cycloaddition for the regioselective synthesis of highly functionalised dispiropyrrolidines” (Bioorg Med Chem Lett, 2012)
Converted amounts (≈) assume the structure as drawn.

Tested on: Mycobacterium tuberculosis
Experiment: Antimycobacterial activity against INH-resistant Mycobacterium tuberculosis by alamar blue broth microdilution assay
Type: functional

Structure (SMILES)	MIC90
CN1CC(c2ccc(Br)cc2)C2(Cc3ccccc3C2=O)C12C(=O)c1ccccc1C2=O (stereo not drawn)	21.4 µM (≈ 10.4 µg/mL)
NNC(=O)c1ccncc1 [ISONIAZID]	11.2 µM (≈ 1.54 µg/mL)
CN(C)c1ccc(C2CN(C)C3(C(=O)c4ccccc4C3=O)C23Cc2ccccc2C3=O)cc1 (stereo not drawn)	43.3 µM (≈ 19.5 µg/mL)
CN1CC(c2ccc(Cl)cc2)C2(Cc3ccccc3C2=O)C12C(=O)c1ccccc1C2=O (stereo not drawn)	24.2 µM (≈ 10.7 µg/mL)
CN1CC(c2cccc3c2OCO3)C2(Cc3ccccc3C2=O)C12C(=O)c1ccccc1C2=O (stereo not drawn)	32.4 µM (≈ 14.6 µg/mL)
CN1CC(c2ccc(N3CCOCC3)cc2)C2(Cc3ccccc3C2=O)C12C(=O)c1ccccc1C2=O (stereo not drawn)	27.2 µM (≈ 13.4 µg/mL)
CN1CC(c2ccccc2)C2(Cc3ccccc3C2=O)C12C(=O)c1ccccc1C2=O (stereo not drawn)	26.2 µM (≈ 10.7 µg/mL)
COc1ccc(C2CN(C)C3(C(=O)c4ccccc4C3=O)C23Cc2ccccc2C3=O)cc1 (stereo not drawn)	> 6.25 µM
CN1CC(c2ccc(OC(F)(F)F)cc2)C2(Cc3ccccc3C2=O)C12C(=O)c1ccccc1C2=O (stereo not drawn)	12.2 µM (≈ 6 µg/mL)
CN1CC(c2cncc(-c3ccc(F)cc3)c2)C2(Cc3ccccc3C2=O)C12C(=O)c1ccccc1C2=O (stereo not drawn)	5.12 µM (≈ 2.57 µg/mL)
CN1CC(c2ccc(C(F)(F)F)cc2)C2(Cc3ccccc3C2=O)C12C(=O)c1ccccc1C2=O (stereo not drawn)	13.6 µM (≈ 6.48 µg/mL)
CN1CC(c2ccc(C(=O)O)cc2)C2(Cc3ccccc3C2=O)C12C(=O)c1ccccc1C2=O (stereo not drawn)	18.3 µM (≈ 8.26 µg/mL)
CN1CC(c2cccc([N+](=O)[O-])c2)C2(Cc3ccccc3C2=O)C12C(=O)c1ccccc1C2=O (stereo not drawn)	16.8 µM (≈ 7.61 µg/mL)
